Holding throughout (assay): growth of human tumour cells (NCI), 48 h
Assay [1] concerns BT-549 breast.
In assay [2] the test system is EKVX NSCLC.
Assay [3] concerns RXF 393 renal.
Assay [4] deals with NCI-H522 lung.
The subject of assay [5] is DU-145 prostate.
In assay [6] the test system is HCC-2998 colon.
Assay [7] deals with OVCAR-4 ovarian.
Assay [8] relates to OVCAR-5 ovarian.
Assay [9] has as its system NCI-H226 lung.
Assay [10] concerns NCI-H23 lung.

Each structure is given as a SMILES string. “And” between values parts separate entries of the source, which are not always exact repeats. Identical values can stand only once.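 Cells were grown in 96-well plates and exposed to each compound for 48 hours at five concentrations; endpoints were interpolated linearly between bracketing concentrations, or set to the highest concentration if not reached. GI50 marks 50% less growth. TGI denotes the concentration required for complete inhibition of growth.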 A value given as a limit tells only on which side of the number the result lay.

For the molecule `NCCN.O=C([O-])CN1CCOCC1.[OH-].[Pt+4]`, the GI50 in [1] is over 100 µM; in [2], over 100 µM; in [3] it was over 100000 nM; in assay [4], over 100000 nM; in [5] it was over 100 µM; in assay [6] it was over 100000 nM. Moreover, the GI50 in assay [7] is over 100 µM; in assay [8], over 100 µM; in [9], over 100 µM; in assay [10], 60.9 µM. Also, the TGI in [1], in [2], in assay [3], in [4], in [5] and in assay [6] was over 100 µM throughout. In addition, the TGI in assay [7], in assay [8], in assay [9] and in assay [10] was over 100 µM throughout.

For the molecule `NC(=O)c1ccc(-c2nc(-c3ccc4c(c3)OCO4)c(-c3ccccn3)[nH]2)cc1`, the GI50 was > 25 µM and 22.5 µM in [1]; > 25 µM and 44.9 µM in assay [2]; > 25000 nM and 12600 nM in assay [3]; > 25000 nM and 22300 nM in assay [4]; > 25 µM and 38.7 µM in [5]; > 25000 nM and 30900 nM in [6]. The GI50 was > 25 µM and 31.1 µM in [7]; > 25 µM and 32 µM in [8]; > 25 µM and 22.2 µM in assay [9]; > 25 µM and 46.3 µM in assay [10]. Besides, the TGI in assay [1] was over 96.7 µM; in [2] it was over 100 µM; in assay [3], > 25 µM and 49.4 µM; in assay [4] it was > 25 µM and 72.5 µM; in [5] it was over 100 µM; in assay [6] it was over 100 µM. In addition, the TGI was over 100 µM in assay [7], over 100 µM in assay [8], over 63.1 µM in assay [9] and over 100 µM in assay [10].

For `NC(=O)Nc1cc(-c2cccc(F)c2)sc1C(=O)N[C@H]1CCCNC1`, the GI50 was 0.15 µM and 0.334 µM in assay [1]; 0.576 µM and 1 µM in [2]; 5.54 nM and 39.5 nM in assay [3]; 291 nM and 273 nM in assay [4]; 0.21 µM and 0.435 µM in assay [5]; 117 nM and 273 nM in assay [6]. Besides, the GI50 in assay [7] is 0.222 µM and 0.31 µM; in [8], 0.173 µM and 0.361 µM; in assay [9] it was 1.09 µM and 0.57 µM; in assay [10], 0.038 µM and 0.193 µM. Moreover, the TGI in assay [1] is 2.05 µM and 1.41 µM; in [2] it was > 5.79 µM and 8.28 µM; in [3], 0.0255 µM and 0.244 µM; in assay [4], 4.87 µM and 2.23 µM; in [5] it was 2.07 µM and 3.81 µM; in [6] it was 1.4 µM and 2.64 µM. Besides, the TGI in assay [7] was > 10 µM and 17.3 µM; in [8], > 6.2 µM and 4.4 µM; in assay [9] it was 8.69 µM and 2.9 µM; in assay [10] it was 1.52 µM and 2.63 µM.

Take `C[C@]12CC[C@@H]3c4ccc(O)cc4CC[C@H]3[C@@H]1Cc1cnc(N)nc12`: the GI50 in assay [1] was 18.7 µM; in assay [2] it was 9.47 µM; in assay [3], 11500 nM; in assay [4], 17300 nM; in assay [5], 17.8 µM; in assay [6] it was 9360 nM. The GI50 in assay [7] is 32.2 µM; in assay [8] it was 28.9 µM; in assay [9], 15.2 µM; in [10], 18.1 µM. The TGI turned out to be 53.2 µM in assay [1]; 34.9 µM in assay [2]; 31.3 µM in [3]; 41.2 µM in assay [4]; 47.3 µM in assay [5]; 26.1 µM in assay [6]. Moreover, the TGI in assay [7] was over 100 µM; in assay [8], 76.1 µM; in assay [9], 33.8 µM; in assay [10], 41 µM.

Take `CN(C)CC1CCC2=C(C1=O)C(c1ccc(Cl)c(Cl)c1)C1=C(CCC(CN(C)C)C1=O)O2` (stereo not given): the GI50 in assay [1] is 14.2 µM; in assay [2] it was 18.2 µM; in [3] it was 9180 nM; in assay [4], 1810 nM; in assay [5] it was 2.91 µM; in assay [6], 83.5 nM. Also, the GI50 is 15.4 µM in assay [7], 20 µM in assay [8], 15.3 µM in assay [9] and 3.6 µM in assay [10]. The TGI in [1] was determined as 27.7 µM; in [2], 34.1 µM; in assay [3], 22.5 µM; in assay [4] it was 3.37 µM; in assay [5] it was 9.09 µM; in assay [6], 14.6 µM. Moreover, the TGI in [7] was found to be 29.9 µM; in assay [8], 36.6 µM; in assay [9], 31.2 µM; in [10] it was 11.9 µM.

Take `C#CCNCCN1C(=O)c2ccc3c4c(ccc(c24)C1=O)C(=O)N(CCNCC#C)C3=O`: the GI50 in [1] is 7.27 µM; in assay [2] it was 5.93 µM; in assay [3], 1790 nM; in [4], 3980 nM; in assay [5], 5.35 µM; in [6], 2490 nM. Besides, the GI50 in assay [7] is 1.96 µM; in assay [8], 8.63 µM; in assay [9], 2.96 µM; in assay [10], 3.56 µM. For the same molecule, the TGI in [1] came out at 14.7 µM; in assay [2], 13.6 µM; in [3], 9.69 µM; in [4], 10.9 µM; in [5], 11.8 µM; in [6], 10 µM. Moreover, the TGI turned out to be 7.47 µM in assay [7], 18.3 µM in assay [8], 12.2 µM in assay [9] and 15.6 µM in [10].

As for `O=C1NOC(c2ccc(O)cc2)(c2ccc(O)cc2)c2ccccc21`, the GI50 in assay [1] is over 100 µM; in assay [2], over 100 µM; in assay [3], over 100000 nM; in assay [4], over 100000 nM; in [5], over 100 µM; in assay [6], over 100000 nM. Besides, the GI50 in assay [7], in assay [8], in assay [9] and in [10] was over 100 µM throughout. Besides, the TGI in assay [1], in [2], in [3], in assay [4], in assay [5] and in [6] was over 100 µM in each case. The TGI in assay [7], in assay [8], in [9] and in [10] was over 100 µM each time.

As to `Cc1ccc(-c2csc(NC(=O)N3CCN(c4cc5c(cc4F)c(=O)c(C(=O)O)cn5C4CC4)CC3)n2)cc1`, the GI50 was 0.345 µM in assay [1]; 1.49 µM in assay [2]; 602 nM in assay [3]; 291 nM in assay [4]; 0.428 µM in assay [5]; 699 nM in [6]. Moreover, the GI50 is 2.64 µM in [7], 0.867 µM in [8], 1.44 µM in assay [9] and 0.391 µM in assay [10]. In addition, the TGI is 2.65 µM in assay [1]; over 100 µM in [2]; 55 µM in [3]; 2.15 µM in assay [4]; over 100 µM in assay [5]; over 100 µM in assay [6]. In addition, the TGI was over 100 µM in assay [7], over 100 µM in assay [8], 8.85 µM in assay [9] and over 100 µM in assay [10].

As for `Cc1cn2c(/C=C3/C(=O)Nc4ccc(O)cc43)c(C)nc2s1`, the GI50 in assay [1] is 5.82 µM; in assay [2], 12.9 µM; in assay [3] it was 2890 nM; in [4] it was 773 nM; in assay [5], 6.43 µM; in [6] it was 1760 nM. Further, the GI50 in assay [7] was over 51.4 µM; in assay [8], 28.3 µM; in assay [9], 4.91 µM; in assay [10] it was 7.12 µM. Further, the TGI was 57.7 µM in [1]; over 100 µM in assay [2]; over 72.5 µM in assay [3]; over 29.3 µM in [4]; over 100 µM in assay [5]; 5.01 µM in assay [6]. The TGI was over 100 µM in [7], over 100 µM in [8], 39.8 µM in [9] and over 68.9 µM in assay [10].

(Values after PubChem BioAssay (NCI).)
